Among the data in US5523406A, “2-substituted tertiary carbinol derivatives of 1,5-iminosugars” (G. D. Searle & Co., priority 1994, dated 1996) are IC50, cytotoxicity and CC50 values, retold here.

Each structure is given as a SMILES string. ≈ marks a conversion by molar mass, not a printed value. Read-outs that look alike come from different tables or passages of the source.

What is called CC50 is the concentration that lowers cell viability or growth by half.

One series has as its system HIV-1, strain HTVL-IIIB. The series is described as follows: Inhibition of HIV-1 cytopathogenic effect in Leu-3a-positive CEM cells, MTT endpoint (Method B). It is filed as cell-based. The settings on record: Human immunodeficiency virus 1, IIIB, CCRF-CEM, 216 h, read-out: ID50 (the source's name). As to the method: (§1) These tests involved plating of susceptible human host cells which are syncytium-sensitive with and without virus in microculture plates, adding various concentrations of the test compound, incubating the plates for 9 days (during which time infected, non-drug treated control cells are largely or totally destroyed by the virus), and then determining the number of remaining viable cells using a colorimetric endpoint.
Various illustrative compounds synthesized above were tested for inhibition of visna virus in vitro in a plaque reduction assay (Method A) or for inhibition of HIV-1 in a test which measured reduction of cytopathogenic effect in virus-infected synctium-sensitive Leu-3a-positive CEM cells grown in tissue culture (Method B) as follows:
(§2) Tissue culture plates were incubated at 37° C. in a humidified, 5% CO2 atmosphere and observed microscopically for toxicity and/or cytopathogenic effect (CPE). At 1 hour prior to infection, each test article was prepared from the frozen stock, and a 20 μl volume of each dilution (prepared as a 10× concentration) was added to the appropriate wells of both infected and uninfected cells.
(§3) On the 9th day post-infection, the cells in each well were resuspended and a 100 μl sample of each cell suspension was removed for use in an MTT assay. A 20 μl volume of a 5 mg/ml solution of 3-(4,5-dimethylthiazol-2-yl)-2,5-diphenyltetrazolium bromide (MTT) was added to each 100 μl cell suspension, and the cells were incubated at 37° C. in 5% CO2 for 4 hours. […] A 100 μl volume of a solution of 10% sodium dodecyl sulfate in 0.01N hydrochloric acid was added to each sample, and the samples were incubated overnight. The absorbance at 590 nm was determined for each sample using a Molecular Devices Vmax microplate reader. This assay detects drug-induced suppression of viral CPE, as well as drug cytotoxicity, by measuring the generation of MTT-formazan by surviving cells.
(§4) Assays were done in 96-well tissue culture plates. CEM cells were treated with polybrene at a concentration of 2 μg/ml, and an 80 μl volume of cells (1×10^4 cells) was dispensed into each well. A 100 μl volume of each test article dilution (prepared as a 2 ×concentration) was added to 5 wells of cells, and the cells were incubated at 37° C. for 1 hour. A frozen culture of HIV-1, strain HTVL-IIIB, was diluted in culture medium to a concentration of 5×10^4 TCID50 per ml, and a 20 μl volume (containing 10^3 TCID50 of virus) was added to 3 of the wells for each test article concentration. […] A 20 μl volume of normal culture medium was added to the remaining wells to allow evaluation of cytotoxicity. Each plate contained 6 wells of untreated, uninfected, cell control samples and 6 wells of untreated, infected, virus control samples.
A general note: Cytopathic effects are the visible damage that an infection or toxin causes in cultured cells.

A short description of the next series: in vitro. The series is classed as cell-based. Conditions: human, cem cells. How it is done:
as §1, §2, §3, §4

[1] abbreviates: Table I, Anti HIV Activity, CEM cells, 9 days.

As to `C[C@]1(O)CN[C@@H]2CO[C@@H](c3ccccc3)O[C@H]2[C@@H]1O` [XIV, 1,5-dideoxy-1,5-imino-2-C-methyl-4,6-O-(R-phenylmethylene)TD-glucitol], in the series on HIV-1, strain HTVL-IIIB (Example 38, inhibition of HIV), the IC50 came out at 513 µg/mL (≈ 1930 µM).
Molecule `CCCCN1C[C@](C)(O)[C@@H](O)[C@H](O)[C@H]1CO` [XVIA, 1,5-Butylimino-1,5-dideoxy-2-C-methyl-D-glucitol] had a cytotoxicity at 216 h in the series “in vitro” of 20%. The IC50 in the series with HIV-1, strain HTVL-IIIB (setting [1]) is 237 µg/mL (≈ 1020 µM).
In the series “in vitro”, `CC1(O)CN(CCCc2ccccc2)C(CO)C(O)C1O` [XVIB, 1,5-(3-phenylpropylimino)-1,5-dideoxy-2-C-methyl-D-glucitol] had a cytotoxicity at 216 h of 40%. The IC50 with HIV-1, strain HTVL-IIIB (setting [1]) is 492 µg/mL (≈ 1670 µM).
Regarding `CCC(CC)CN1C[C@](C)(O)[C@@H](O)[C@H](O)[C@H]1CO` [XVIC, 1,5-(2-ethylbutylimino) -1,5-dideoxy-2-C-methyl-D-glucitol], the midpoint of cytotoxicity in the series “in vitro”, the CC50 at 216 h, lay at 349 µg/mL (≈ 1340 µM). Moreover, the IC50 with HIV-1, strain HTVL-IIIB (setting [1]) amounted to 6 µg/mL (≈ 23 µM).
For `CCCCN1C[C@H](O)[C@@H](O)[C@H](O)[C@H]1CO` [n-Bu, N-butyl DNJ, reference compound] the same measures were above 500 µg/mL and 34 µg/mL (≈ 155 µM).
